# Laboratory results: patent US6114175A, “Compound for the antemortem diagnosis of Alzheimer's Disease and in vivo imaging and prevention of amyloid deposition” (priority 1998, dated 2000)
# Entries after “also recorded” stand apart in the source; their conditions may differ. Read-outs that look alike come from different tables or passages of the source.
# Legend:
# [1] = tested on: transgenic mouse brain [Tg(HuAPP695.SWE)2576]; test: Histologic staining of transgenic mouse brain sections; details: fluorescence microscopy
# Source text: (§1) The staining method was that of Stokes and Trickey, J. Clin. Pathol. 26: 241-242 (1973) with 1,4-bis(3-carboxy-4-hydroxyphenylethenyl)-benzene substituted for Congo red.
# [2] = tested on: AD brain; test: Histologic staining of human AD brain sections; details: fluorescence microscopy
# Procedure: 26: 241-242 (1973) with 1 mM 1,4-bis(3-carboxy-4-hydroxyphenylethenyl)-benzene substituted for Congo red, but the procedure was otherwise identical. Stained slides were examined using fluorescence microscopy.
# as §1
# [3] = target: T1, Aβ(10-43) (Homo sapiens, UniProt P05067); test: Inhibition of [^14 C]Chrysamine G binding to Aβ(10-43); details: for potency/affinity relative to another compound: Congo red or the series
# T1 sequence (P05067 681-714): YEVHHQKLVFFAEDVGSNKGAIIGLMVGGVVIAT
# [4] = Octanol/water partitioning; details: phosphate buffered saline, pH 7.4
# [5] = target: T1, Aβ(10-43)
# [6] = tested on: control brain; test: Total [^14 C]Chrysamine G binding in control brain homogenates
# [7] = Tissue levels and metabolism of [^14 C]Chrysamine G in mice
# [8] = tested on: control brain; test: Scatchard analysis of [^14 C]CG binding to control brain; design: species or system human
# [9] = tested on: AD brain; test: Total [^14 C]Chrysamine G binding in AD brain homogenates
# [10] = tested on: PC-12 cells; test: Protection from Aβ(25-35)-induced toxicity in PC-12 cells (MTT reduction); details: for protection against Aβ(25-35)-induced toxicity: 1 μM Aβ(25-35) (FIG. 14)
# [11] = tested on: AD brain; test: Scatchard analysis of [^14 C]CG binding to AD brain; design: species or system human
# [12] = target: T1, Aβ(10-43); test: Scatchard analysis of Chrysamine G binding to synthetic Aβ(10-43)
# [13] = tested on: Aβ; details: cited from earlier work
# [14] = cited from earlier work
# [15] = mouse; Tubis et al.; cited from earlier work
# [16] = tested on: Aβ; details: Lorenzo and Yankner; cited from earlier work
# [17] = tested on: pancreatic islet cells; details: cited from earlier work
smiles,measurement,setting,value
"O=C(O)c1cc(C=Cc2ccc(C=Cc3ccc(O)c(C(=O)O)c3)cc2)ccc1O [1,4-bis(3-carboxy-4-hydroxyphenylethenyl)-benzene]",staining of transgenic mouse brain,[1],intensely stained plaque
same,staining of human AD brain,[2],"much more intense than that observed with Chrysamine G, Congo red, or Thioflavin S; also recorded: Visible are a large number of neuritic plaques, a neurofibrillary tangle and frequent neuropil threads"
"O=C(O)c1cc(N=Nc2ccc(-c3ccc(N=Nc4ccc(O)c(C(=O)O)c4)cc3S(=O)(=O)O)c(S(=O)(=O)O)c2)ccc1O [2,2'-(SO3)2 CG]",binding activity,[3],inactivity
"O=C(O)c1cc(N=Nc2ccc(-c3ccc(N=Nc4ccc(O)c(C(=O)O)c4)c(C(=O)O)c3)cc2C(=O)O)ccc1O [3,3'-(COOH)2 CG]",loss of activity from Chrysamine G,[3]; relative to Chrysamine G,7 fold
"O=C(O)c1cc(N=Nc2ccc(-c3ccc(N=Nc4ccc(O)c(C(=O)O)c4)c(Br)c3)cc2Br)ccc1O [3,3'-Br2 CG]",potency/affinity relative to another compound,[3]; relative to Chrysamine G,about half that of Chrysamine G
"O=C(O)c1cc(N=Nc2ccc(-c3ccc(N=Nc4ccc(O)c(C(=O)O)c4)c(Cl)c3)cc2Cl)ccc1O [3,3'-Cl2 CG]",potency/affinity relative to another compound,[3]; relative to Chrysamine G,about half that of Chrysamine G
"O=C(O)c1cc(N=Nc2ccc(-c3ccc(N=Nc4ccc(O)c(C(=O)O)c4)c(I)c3)cc2I)ccc1O [3,3'-I2 CG]",potency/affinity relative to another compound,[3]; relative to Chrysamine G,about half that of Chrysamine G
same,logD,[4],2.05
O=C(O)c1cc(N=Nc2ccc(-c3ccc(N=Nc4ccc(O)c(C(=O)O)c4)c(I)c3)cc2)ccc1O [3-ICG],potency/affinity relative to another compound,[3]; relative to Chrysamine G,slightly more potent than Chrysamine G
O=C(O)c1cc(F)cc(N=Nc2ccc(-c3ccc(N=Nc4cc(F)cc(C(=O)O)c4O)cc3)cc2)c1O [(5-FSA)CG],potency/affinity relative to another compound,[3]; relative to Chrysamine G,one-third as potent as Chrysamine G itself
O=C(O)c1c(O)ccc(N=Nc2ccc(-c3ccc(N=Nc4ccc(O)c(C(=O)O)c4O)cc3)cc2)c1O [(6-OHSA)CG],Ki,[3],94 ± 20 nM
same,potency/affinity relative to another compound,[3]; relative to Chrysamine G,highest affinity compound in this series
"O=C(O)c1cc(N=Nc2ccc(-c3ccc(N=Nc4ccc(O)c(C(=O)O)c4)cc3)cc2)ccc1O [Chrysamine G, 4,4'-bis(3-carboxy-4-hydroxyphenylazo)-biphenyl]",dissociation t1/2,[5],55 ± 9.4 s
same,"total binding, Head of Caudate",[6]; n = 4,73 ± 11 fmol/μg protein
same,"total binding, Frontal Pole",[6]; n = 6,58 ± 8 fmol/μg protein
same,"total binding, Cerebellum",[6]; n = 8,75 ± 13 fmol/μg protein
same,"total binding, Inferior Parietal",[6]; n = 8,76 ± 13 fmol/μg protein
same,"total binding, Superior Temporal",[6]; n = 8,66 ± 17 fmol/μg protein
same,"total binding, Superior/Middle Frontal",[6]; n = 8,54 ± 10 fmol/μg protein
same,metabolism,"[7]; 60 min after i.v. injection, brain and liver",no significant metabolism; also recorded: essentially all of the radioactivity found in the brain and liver proved to be unchanged Chrysamine G
same,entry into brain,[7]; normal mouse brain,"does get into normal mouse brain, and the brain/blood ratio is high"
same,"Bmax, control brain (Table 1)",[8]; n = 6,0.576 ± .092 pmol/μg prot
same,Kd,"[8]; n = 6, read-out: KD, control brain (Table 1)",470 ± 49 nM
same,Bmax (typical control sample),[8]; single typical control,614 fmol/μg protein
same,Kd,"[8]; single typical control, read-out: KD (typical control sample)",480 nM
same,saturable (specific) binding as share of total binding in AD brain,[9]; 20 μM unlabelled CG defines non-saturable,60-80%
same,correlation (r) of [^14 C]CG binding with NPs,"[9]; AD brains alone, p=0.007",0.59
same,correlation (r) of [^14 C]CG binding with NFTs,"[9]; AD brains alone, p=0.026",0.50
same,"total binding, Head of Caudate","[9]; AD, n = 7, p = 0.14",123 ± 22 fmol/μg protein
same,"total binding, Frontal Pole","[9]; AD, n = 10, p < 0.006",124 ± 16 fmol/μg protein
same,"total binding, Superior/Middle Frontal","[9]; AD, n = 11, p < 0.005",130 ± 21 fmol/μg protein
same,"total binding, Superior Temporal","[9]; AD, n = 11, p < 0.02",121 ± 14 fmol/μg protein
same,"total binding, Inferior Parietal","[9]; AD, n = 11, p < 0.03",137 fmol/μg protein
same,"total binding, Cerebellum","[9]; AD, n = 11, p = 0.91",73 ± 9 fmol/μg protein
same,correlation (r) of CG binding with NP counts,"[9]; brains with cerebrovascular amyloid, p=0.15",0.49
same,correlation (r) of CG binding with NP counts,"[9]; brains without amyloid angiopathy, p=0.01",0.79
same,correlation (r) of [^14 C]CG binding with NFTs,"[9]; controls included, p=0.001",0.60
same,correlation (r) of [^14 C]CG binding with NPs,"[9]; controls included, p=0.001",0.69
same,overlap of binding between control and AD samples,[9]; superior/middle frontal cortex,no overlap between control and any of the AD samples
same,protection against Aβ(25-35)-induced toxicity,[10],protective effects at 0.1 and 1 μM
same,protective effect dependence,[10]; 0.01 to 10 μM Aβ(25-35) and 0.03 to 20 μM CG,protective effect which is dependent on both the concentration of Aβ(25-35) (FIG. 12) as well as the concentration of Chrysamine G
same,minimal effective concentration,"[10]; Rattus norvegicus, PC-12, 24 h, read-out: concentration at which protective effect is evident",0.2 µM
same,MTT reduction in the absence of Aβ(25-35) vs control,[10]; any of the Chrysamine G concentrations,no significant difference
same,"Bmax, AD brain (Table 1)",[11]; n = 5,0.784 ± .061 pmol/μg prot
same,Kd,"[11]; n = 5, read-out: KD, AD brain (Table 1)",390 ± 48 nM
same,Bmax in AD brain higher than control,"[11]; p=0.09, not significant",36%
same,KD in AD brain lower than control,"[11]; p=0.29, not significant",16%
same,Bmax (typical AD brain sample),[11]; sample with 48 NP/×200 magnification,790 fmol/μg protein
same,Kd,"[11]; sample with 48 NP/×200 magnification, read-out: KD (typical AD brain sample)",350 nM
same,energy of binding (from KD),[12]; KD 0.26 μM,roughly 38 KJ/mole
same,"Bmax, lower affinity component",[12]; less well defined,18.7 nmoles Chrysamine G/mg Aβ(10-43)
same,Kd,"[12]; read-out: KD, higher affinity component (Scatchard), Aβ(10-43), two-site model",260 nM
same,Kd,"[12]; read-out: KD, lower affinity component (Scatchard), less well defined",4010 nM
same,"Bmax, higher affinity component",[12]; two-site model,3.18 nmoles Chrysamine G/mg Aβ(10-43)
same,logD,[4],1.78
Nc1c(/N=N/c2ccc(-c3ccc(/N=N/c4cc(S(=O)(=O)O)c5ccccc5c4N)cc3)cc2)cc(S(=O)(=O)O)c2ccccc12 [Congo red],Ki,"[3]; read-out: Ki for inhibition of [^14 C]Chrysamine G binding to Aβ(10-43), [^14 C]Chrysamine G 0.100-0.125 μM",2800 nM
same,concentration for complete protection against Aβ-induced toxicity,[13],≤ 20 µM
same,concentration for protection against Aβ-induced toxicity,[13],over 2 μM
same,effect on Aβ-induced neurotoxicity,[13]; in vitro,inhibits fibrillar Aβ neurotoxicity; also recorded: inhibits Aβ-induced neurotoxicity and cell degeneration in vitro
same,blood-brain barrier crossing,"[14]; guinea pig, in vivo",does not cross the blood-brain barrier well
same,brain/kidney ratio,[14]; guinea pigs,approximately 0.07
same,LD50,[15],190 mg/kg
same,effect on aggregation of Aβ,[16],does inhibit aggregation of Aβ
same,effect on amylin toxicity to pancreatic islet cells,[17],inhibit pancreatic islet cell toxicity; also recorded: protect pancreatic islet cells from the toxicity caused by amylin
same,logD,[4],-0.177
O=C(O)c1cc(N=Nc2ccccc2)ccc1O [aniline derivative],Ki,[3],73000 nM
same,binding activity,[3],decrease in affinity
same,energy of binding (from Ki),[3]; Ki of 73 μM,5.5 kcal/mol
same,expected energy of binding (one-half of Chrysamine G),[3]; predicted value,about 19 KJ/mole
Oc1ccc(N=Nc2ccc(-c3ccc(N=Nc4ccc(O)cc4)cc3)cc2)cc1 [phenol derivative],binding activity,[3],completely destroyed binding affinity; also recorded: does not bind to synthetic Aβ
same,protection against Aβ(25-35)-induced toxicity,[10],"no protective effects, and perhaps enhanced the toxicity of Aβ"
O=C(O)c1ccccc1O [salicylic acid],binding activity,[3],total lack of binding activity; also recorded: inactivity
